Measurements from ChEMBL document CHEMBL5380831, “Azolylpyrimidinediols as Novel Structural Scaffolds of DNA-Groove Binders against Intractable Acinetobacter baumannii” (J Med Chem, 2023).
Values after ≈ are worked out from the molar mass of the structure shown.

Columns and labels:
Type in all cases: functional
[1] = test system: Pseudomonas aeruginosa; experiment: Antibacterial activity against Pseudomonas aeruginosa ATCC 27853 assessed as bacterial growth inhibition incubated for 24 hrs by broth microdilution method
[2] = test system: Pseudomonas aeruginosa; experiment: Antibacterial activity against Pseudomonas aeruginosa assessed as bacterial growth inhibition incubated for 24 hrs by broth microdilution method
[3] = test system: Klebsiella pneumoniae; experiment: Antibacterial activity against Klebsiella pneumoniae assessed as bacterial growth inhibition incubated for 24 hrs by broth microdilution method
[4] = test system: Enterococcus faecalis; experiment: Antibacterial activity against Enterococcus faecalis assessed as bacterial growth inhibition incubated for 24 hrs by broth microdilution method
[5] = test system: Staphylococcus aureus; experiment: Antibacterial activity against methicillin-resistant Staphylococcus aureus assessed as bacterial growth inhibition incubated for 24 hrs by broth microdilution method
[6] = test system: Acinetobacter baumannii; experiment: Antibacterial activity against Acinetobacter baumannii assessed as bacterial growth inhibition incubated for 24 hrs by broth microdilution method
[7] = test system: Staphylococcus aureus; experiment: Antibacterial activity against Staphylococcus aureus assessed as bacterial growth inhibition incubated for 24 hrs by broth microdilution method
[8] = test system: Staphylococcus aureus; experiment: Antibacterial activity against Staphylococcus aureus ATCC 29213 assessed as bacterial growth inhibition incubated for 24 hrs by broth microdilution method
[9] = test system: Escherichia coli; experiment: Antibacterial activity against Escherichia coli ATCC 25922 assessed as bacterial growth inhibition incubated for 24 hrs by broth microdilution method
[10] = test system: Staphylococcus aureus; experiment: Antibacterial activity against Staphylococcus aureus ATCC 25923 assessed as bacterial growth inhibition incubated for 24 hrs by broth microdilution method
[11] = test system: Escherichia coli; experiment: Antibacterial activity against Escherichia coli assessed as bacterial growth inhibition incubated for 24 hrs by broth microdilution method

`Cc1cn(-c2nccc(N(CCO)CCO)n2)cn1` showed an MIC [1] of 973 µM (≈ 256 µg/mL), an MIC [2] of 973 µM (≈ 256 µg/mL) and an MIC [3] of 973 µM (≈ 256 µg/mL). For the same compound, the MIC [4] was 1950 µM (≈ 512 µg/mL), the MIC [5] was 973 µM (≈ 256 µg/mL) and the MIC [6] was 486 µM (≈ 128 µg/mL). The MIC [7] was 973 µM (≈ 256 µg/mL), the MIC [8] was 973 µM (≈ 256 µg/mL) and the MIC [9] was 1950 µM (≈ 512 µg/mL). For the same compound, the MIC [10] was 1950 µM (≈ 512 µg/mL) and the MIC [11] was 973 µM (≈ 256 µg/mL).
For `Brc1ccc2c3ccccc3n(-c3nccc(-n4cncn4)n3)c2c1`, the MIC [1] was 656 µM (≈ 257 µg/mL), the MIC [2] was 1 µM (≈ 0.391 µg/mL) and the MIC [3] was 656 µM (≈ 257 µg/mL). It also gave an MIC [4] of 164 µM (≈ 64.2 µg/mL), an MIC [5] of 656 µM (≈ 257 µg/mL) and an MIC [6] of 656 µM (≈ 257 µg/mL). It also gave an MIC [7] of 5 µM (≈ 1.96 µg/mL), an MIC [8] of 656 µM (≈ 257 µg/mL) and an MIC [9] of 656 µM (≈ 257 µg/mL). For the same compound, the MIC [10] was 1660 µM (≈ 648 µg/mL) and the MIC [11] was 656 µM (≈ 257 µg/mL).
`Cc1nc2ccccc2n1-c1ccnc(N(CCO)CCO)n1` gave an MIC [1] of 102 µM (≈ 32 µg/mL), an MIC [2] of 26 µM (≈ 8.15 µg/mL) and an MIC [3] of 204 µM (≈ 63.9 µg/mL). The MIC [4] was 409 µM (≈ 128 µg/mL), the MIC [5] was 204 µM (≈ 63.9 µg/mL) and the MIC [6] was 204 µM (≈ 63.9 µg/mL). It also gave an MIC [7] of 102 µM (≈ 32 µg/mL), an MIC [8] of 204 µM (≈ 63.9 µg/mL) and an MIC [9] of 817 µM (≈ 256 µg/mL). It also gave an MIC [10] of 102 µM (≈ 32 µg/mL) and an MIC [11] of 51 µM (≈ 16 µg/mL).
In the case of `O=S(=O)(c1ccc(F)cc1)N1CCN(c2nccc(-n3cncn3)n2)CC1`, the MIC [1] is reported as 658 µM (≈ 256 µg/mL), the MIC [2] is reported as 329 µM (≈ 128 µg/mL) and the MIC [3] is reported as 658 µM (≈ 256 µg/mL). For the same compound, the MIC [4] was 658 µM (≈ 256 µg/mL), the MIC [5] was 658 µM (≈ 256 µg/mL) and the MIC [6] was 165 µM (≈ 64.3 µg/mL). The MIC [7] was 658 µM (≈ 256 µg/mL), the MIC [8] was 658 µM (≈ 256 µg/mL) and the MIC [9] was 658 µM (≈ 256 µg/mL). For the same compound, the MIC [10] was 165 µM (≈ 64.3 µg/mL) and the MIC [11] was 658 µM (≈ 256 µg/mL).
`OCCN(CCO)c1nccc(-n2cnnn2)n1` was tested, and the MIC [1] was 1020 µM (≈ 256 µg/mL), the MIC [3] was 1020 µM (≈ 256 µg/mL) and the MIC [4] was 1020 µM (≈ 256 µg/mL). The MIC [5] was 2040 µM (≈ 512 µg/mL), the MIC [6] was 510 µM (≈ 128 µg/mL) and the MIC [7] was 1020 µM (≈ 256 µg/mL). It also gave an MIC [8] of 1020 µM (≈ 256 µg/mL), an MIC [9] of 1020 µM (≈ 256 µg/mL) and an MIC [10] of 1020 µM (≈ 256 µg/mL). The MIC [11] was 1020 µM (≈ 256 µg/mL).
With `Cc1cc2ncn(-c3ccnc(N(CCO)CCO)n3)c2cc1C` the MIC [1] was 98 µM (≈ 32.1 µg/mL), the MIC [2] was 98 µM (≈ 32.1 µg/mL) and the MIC [3] was 391 µM (≈ 128 µg/mL). It also gave an MIC [4] of 196 µM (≈ 64.2 µg/mL), an MIC [5] of 391 µM (≈ 128 µg/mL) and an MIC [6] of 391 µM (≈ 128 µg/mL). For the same compound, the MIC [7] was 98 µM (≈ 32.1 µg/mL), the MIC [8] was 782 µM (≈ 256 µg/mL) and the MIC [9] was 782 µM (≈ 256 µg/mL). The MIC [10] was 391 µM (≈ 128 µg/mL) and the MIC [11] was 196 µM (≈ 64.2 µg/mL).
Work on `Cc1nccn1-c1ccnc(N(CCO)CCO)n1` yielded an MIC [1] of 973 µM (≈ 256 µg/mL), an MIC [2] of 486 µM (≈ 128 µg/mL) and an MIC [3] of 973 µM (≈ 256 µg/mL). The MIC [4] was 973 µM (≈ 256 µg/mL), the MIC [5] was 973 µM (≈ 256 µg/mL) and the MIC [6] was 973 µM (≈ 256 µg/mL). The MIC [7] was 973 µM (≈ 256 µg/mL), the MIC [8] was 1950 µM (≈ 512 µg/mL) and the MIC [9] was 973 µM (≈ 256 µg/mL). For the same compound, the MIC [10] was 973 µM (≈ 256 µg/mL) and the MIC [11] was 973 µM (≈ 256 µg/mL).
In the case of `OCCN(CCO)c1ccnc(-n2ccnc2)n1`, the MIC [1] is reported as 1030 µM (≈ 256 µg/mL), the MIC [2] is reported as 514 µM (≈ 128 µg/mL) and the MIC [3] is reported as 1030 µM (≈ 256 µg/mL). It also gave an MIC [4] of 1030 µM (≈ 256 µg/mL), an MIC [5] of 1030 µM (≈ 256 µg/mL) and an MIC [6] of 1030 µM (≈ 256 µg/mL). For the same compound, the MIC [7] was 1030 µM (≈ 256 µg/mL), the MIC [8] was 2060 µM (≈ 512 µg/mL) and the MIC [9] was 2060 µM (≈ 512 µg/mL). It also gave an MIC [10] of 1030 µM (≈ 256 µg/mL) and an MIC [11] of 1030 µM (≈ 256 µg/mL).
In the case of `OCCN(CCO)c1nccc(-n2cnc3ccccc32)n1`, the MIC [1] is reported as 107 µM (≈ 32 µg/mL), the MIC [2] is reported as 214 µM (≈ 64.1 µg/mL) and the MIC [3] is reported as 428 µM (≈ 128 µg/mL). The MIC [4] was 107 µM (≈ 32 µg/mL), the MIC [5] was 856 µM (≈ 256 µg/mL) and the MIC [6] was 856 µM (≈ 256 µg/mL). It also gave an MIC [7] of 214 µM (≈ 64.1 µg/mL), an MIC [8] of 856 µM (≈ 256 µg/mL) and an MIC [9] of 856 µM (≈ 256 µg/mL). The MIC [10] was 107 µM (≈ 32 µg/mL) and the MIC [11] was 214 µM (≈ 64.1 µg/mL).
`O=C(CCl)N1CCN(c2nccc(-n3cncn3)n2)CC1` showed an MIC [1] of 208 µM (≈ 64 µg/mL), an MIC [2] of 104 µM (≈ 32 µg/mL) and an MIC [3] of 104 µM (≈ 32 µg/mL). For the same compound, the MIC [4] was 417 µM (≈ 128 µg/mL), the MIC [5] was 104 µM (≈ 32 µg/mL) and the MIC [6] was 208 µM (≈ 64 µg/mL). For the same compound, the MIC [7] was 417 µM (≈ 128 µg/mL), the MIC [8] was 104 µM (≈ 32 µg/mL) and the MIC [9] was 104 µM (≈ 32 µg/mL). For the same compound, the MIC [10] was 208 µM (≈ 64 µg/mL) and the MIC [11] was 208 µM (≈ 64 µg/mL).
`CCc1nccn1-c1ccnc(N(CCO)CCO)n1` was tested, and the MIC [1] was 924 µM (≈ 256 µg/mL), the MIC [2] was 924 µM (≈ 256 µg/mL) and the MIC [3] was 1850 µM (≈ 512 µg/mL). For the same compound, the MIC [4] was 924 µM (≈ 256 µg/mL), the MIC [5] was 924 µM (≈ 256 µg/mL) and the MIC [6] was 924 µM (≈ 256 µg/mL). The MIC [7] was 924 µM (≈ 256 µg/mL), the MIC [8] was 924 µM (≈ 256 µg/mL) and the MIC [9] was 924 µM (≈ 256 µg/mL). For the same compound, the MIC [10] was 924 µM (≈ 256 µg/mL) and the MIC [11] was 924 µM (≈ 256 µg/mL).
`CC(=O)Nc1ccc(S(=O)(=O)N2CCN(c3nccc(-n4cncn4)n3)CC2)cc1` gave an MIC [1] of 598 µM (≈ 256 µg/mL), an MIC [2] of 598 µM (≈ 256 µg/mL) and an MIC [3] of 598 µM (≈ 256 µg/mL). The MIC [4] was 598 µM (≈ 256 µg/mL), the MIC [5] was 598 µM (≈ 256 µg/mL) and the MIC [6] was 598 µM (≈ 256 µg/mL). For the same compound, the MIC [7] was 299 µM (≈ 128 µg/mL), the MIC [8] was 598 µM (≈ 256 µg/mL) and the MIC [9] was 598 µM (≈ 256 µg/mL). It also gave an MIC [10] of 299 µM (≈ 128 µg/mL) and an MIC [11] of 598 µM (≈ 256 µg/mL).
`O=C(C(Cl)Cl)N1CCN(c2nccc(-n3cncn3)n2)CC1` gave an MIC [1] of 705 µM (≈ 241 µg/mL), an MIC [2] of 88 µM (≈ 30.1 µg/mL) and an MIC [3] of 353 µM (≈ 121 µg/mL). The MIC [4] was 705 µM (≈ 241 µg/mL), the MIC [5] was 705 µM (≈ 241 µg/mL) and the MIC [6] was 705 µM (≈ 241 µg/mL). The MIC [7] was 705 µM (≈ 241 µg/mL), the MIC [8] was 705 µM (≈ 241 µg/mL) and the MIC [9] was 353 µM (≈ 121 µg/mL). The MIC [10] was 705 µM (≈ 241 µg/mL) and the MIC [11] was 705 µM (≈ 241 µg/mL).
For `Cc1nccn1-c1nccc(N(CCO)CCO)n1`, the MIC [1] was 973 µM (≈ 256 µg/mL), the MIC [2] was 973 µM (≈ 256 µg/mL) and the MIC [3] was 973 µM (≈ 256 µg/mL). For the same compound, the MIC [4] was 973 µM (≈ 256 µg/mL), the MIC [5] was 973 µM (≈ 256 µg/mL) and the MIC [6] was 973 µM (≈ 256 µg/mL). For the same compound, the MIC [7] was 973 µM (≈ 256 µg/mL), the MIC [8] was 973 µM (≈ 256 µg/mL) and the MIC [9] was 1950 µM (≈ 512 µg/mL). For the same compound, the MIC [10] was 973 µM (≈ 256 µg/mL) and the MIC [11] was 973 µM (≈ 256 µg/mL).
For `Cc1ncc([N+](=O)[O-])n1-c1ccnc(N(CCO)CCO)n1`, the MIC [1] was 1660 µM (≈ 512 µg/mL), the MIC [2] was 415 µM (≈ 128 µg/mL) and the MIC [3] was 415 µM (≈ 128 µg/mL). It also gave an MIC [4] of 406 µM (≈ 125 µg/mL), an MIC [5] of 831 µM (≈ 256 µg/mL) and an MIC [6] of 415 µM (≈ 128 µg/mL). It also gave an MIC [7] of 415 µM (≈ 128 µg/mL), an MIC [9] of 831 µM (≈ 256 µg/mL) and an MIC [10] of 831 µM (≈ 256 µg/mL). For the same compound, the MIC [11] was 415 µM (≈ 128 µg/mL).
